Source: publication PMC4774972, “Activity and Predicted Nephrotoxicity of Synthetic Antibiotics Based on Polymyxin B” (Journal of Medicinal Chemistry, 2016)
Numbered stars: 1 amine (or outer) side, 2 acyl side, 3 side chain; on linkers, the order of the positions; unused ones are H or OH. Bridge positions count the residues as written; N and C are the ends. Square brackets hold non-standard residues; d marks the D form. Peptide text beside a SMILES is read from it. * marks the point of attachment. NH(2-ClPh) = Clc1ccccc1N*; dDab = NCC[C@@H](N)C(=O)O; hSer = N[C@@H](CCO)C(=O)O; Octanoyl = CCCCCCCC(=O)*; Dab = NCC[C@H](N)C(=O)O; CO = O=C([*:1])[*:2]

Assays:
[1] = tested on: S. aureus ATCC 25923, MSSA; assay: microbe, parasite or virus in culture; type: cell-based, Staphylococcus aureus; conditions: MHB, 5 × 10^5 CFU/mL, read visually after 18 h at 37 °C
Method: (§1) Bacteria were either obtained from American Type Culture Collection (ATCC; Manassas, VA, USA) or independent academic clinical isolate collections, as listed in Table S2. Bacteria were cultured in nutrient broth (NB; Bacto Laboratories, catalog no. 234000) or Muller Hinton broth (MHB; Bacto Laboratories, catalog no. 211443) at 37 °C overnight with shaking (∼180 rpm). A sample of each culture was then diluted 50-fold in fresh MHB and incubated at 37 °C for 1.5–3 h with shaking (∼180 rpm). Compound stock solutions were prepared as 0.64 or 2.56 mg/mL in water. The compounds, at twice the final desired concentration, were serially diluted 2-fold across the wells of 96-well plates (Polystyrene, Corning, catalogue No. 3370). Mid log phase bacterial cultures (after 1.5–3 h incubation) were diluted to a final concentration of 5 × 10^5 colony forming units (CFU)/mL, and 50 μL was added to each well giving a final compound concentration range of 32 μg/mL to 0.015 μg/mL (128–0.06 μg/mL for colistin and polymyxin B against the polymyxin resistant clinical isolates). MICs were determined visually after 18 h of incubation at 37 °C, with the MIC defined as the lowest compound concentration at which no bacterial growth was visible.
(§2) Table S2. Bacterial strains used for Minimum Inhibitory Concentration (MIC) […]
(§3) Organism Strain Strain description Strain Source
(§4) Escherichia coli ATCC 25922 FDA strain Seattle 1946 ATCC
(§5) Klebsiella pneumoniae ATCC 13883 Control strain ATCC
(§6) Klebsiella pneumoniae ATCC 700603 Multi-drug resistant ATCC
(§7) Klebsiella pneumoniae BAA-2146 Metallo-beta-lactamase- ATCC
(§8) Acinetobacter baumannii ATCC 19606 Type strain ATCC
(§9) Pseudomonas aeruginosa ATCC 27853 Type strain ATCC
(§10) Pseudomonas aeruginosa FADDI-PA070 Clinical isolate, Nation and Li labs, polymyxin resistant Monash University
(§11) Clinical isolate, Wang Hengzhuang, Pseudomonas aeruginosa PA9704 polymyxin resistant University Hospital of […]
(§12) Ptyela Clinical isolate, Ilias Karaiskos and Acinetobacter baumannii Carbapenem & Helen Giamarellou
(§13) Clinical isolate, Medicine, Hygeia
(§14) Klebsiella pneumoniae Koprana Carbapenem, & General Hospital, […]
(§15) Clinical isolate, (Instituto Dante […]
(§16) polymyxin resistant Cardiologia, São […]

[2] = tested on: K. pneumoniae CI 138-16357-20362, PmxR; assay: microbe, parasite or virus in culture; type: cell-based, Klebsiella pneumoniae; conditions: carbapenem & polymyxin resistant clinical isolate; MHB, 5 × 10^5 CFU/mL, 18 h at 37 °C
Method: as §1, §2, §3, §4, §5, §6, §7, §8, §9, §10, §11, §12, §13, §14, §15, §16

[3] = tested on: K. pneumoniae CI Koprana 100650661:1, PmxR; assay: microbe, parasite or virus in culture; type: cell-based, Klebsiella pneumoniae; conditions: carbapenem & polymyxin resistant clinical isolate; MHB, 5 × 10^5 CFU/mL, 18 h at 37 °C
Method: as §1, §2, §3, §4, §5, §6, §7, §8, §9, §10, §11, §12, §13, §14, §15, §16

[4] = tested on: P. aeruginosa PA9704, PmxR; conditions: MIC P. aeruginosa PA9704, PmxR (µg/mL)
[5] = tested on: K. pneumoniae CI 138-16357-20362, PmxR; conditions: MIC K. pneumoniae CI 138-16357-20362, PmxR (µg/mL)
[6] = tested on: A. baumannii CI Ptyela 100734512:2, PmxR; conditions: MIC A. baumannii CI Ptyela 100734512:2, PmxR (µg/mL)
[7] = tested on: S. aureus ATCC 25923, MSSA; conditions: MIC S. aureus ATCC 25923, MSSA (µg/mL)
[8] = tested on: K. pneumoniae CI Koprana 100650661:1, PmxR; conditions: MIC K. pneumoniae CI Koprana 100650661:1, PmxR (µg/mL)
HepG2 cells = assay: Cytotoxicity assay (resazurin assay); type: cell-based, human; conditions: 4000 cells/well, 24 h incubation with compound, fluorescence 560/590
Method: Cytotoxicity to HEK293 and HepG2 cells was determined using the resazurin assay.[67],[68] […] Compounds were then added into each well. After 24 h incubation, 5 μM resazurin was added per well and incubated at 37 °C for 2 h. Fluorescence intensity was then read using a Polarstar Omega with excitation/emission 560/590. The data were then analyzed using GraphPad Prism 6 software. CC50 values were determined using GraphPad Prism 6 software (Inc. La Jolla, CA).

HepG2 = conditions: CC50 HepG2 (µM)
[9] = tested on: P. aeruginosa PA9704, PmxR; type: cell-based, Pseudomonas aeruginosa; conditions: polymyxin resistant clinical isolate; MHB, 5 × 10^5 CFU/mL, 18 h at 37 °C
Method: as §1, §2, §3, §4, §5, §6, §7, §8, §9, §10, §11, §12, §13, §14, §15, §16

[10] = tested on: A. baumannii CI Ptyela 100734512:2, PmxR; assay: microbe, parasite or virus in culture; type: cell-based, Acinetobacter baumannii; conditions: carbapenem & polymyxin resistant clinical isolate; MHB, 5 × 10^5 CFU/mL, 18 h at 37 °C
Method: as §1, §2, §3, §4, §5, §6, §7, §8, §9, §10, §11, §12, §13, §14, §15, §16

A. baumannii ATCC 19606 = conditions: MIC A. baumannii ATCC 19606 (µg/mL)
[11] = tested on: K. pneumoniae ATTC BAA-2146, NDM-1 pos; conditions: MIC K. pneumoniae ATTC BAA-2146, NDM-1 pos (µg/mL)
[12] = tested on: P. aeruginosa FADDI-PA070, PmxR; conditions: MIC P. aeruginosa FADDI-PA070, PmxR (µg/mL)
P. aeruginosa ATCC 27853 = conditions: MIC P. aeruginosa ATCC 27853 (µg/mL)
K. pneumoniae ATCC 13883 = conditions: MIC K. pneumoniae ATCC 13883 (µg/mL)
[13] = tested on: K. pneumoniae ATCC 700603, MDR; conditions: MIC K. pneumoniae ATCC 700603, MDR(µg/mL)
E. coli ATCC 25922 = conditions: MIC E. coli ATCC 25922 (µg/mL)

Structure (SMILES) | MIC S. aureus ATCC 25923, MSSA [1] | MIC K. pneumoniae CI 138-16357-20362, PmxR [2] | MIC K. pneumoniae CI Koprana 100650661:1, PmxR [3] | MIC [4] | MIC [5] | MIC [6] | MIC [7] | MIC [8] | HepG2 - CC50 (HepG2 cells) | CC50 (HepG2) | MIC P. aeruginosa PA9704, PmxR [9] | MIC A. baumannii CI Ptyela 100734512:2, PmxR [10] | MIC (A. baumannii ATCC 19606) | MIC [11] | MIC [12] | MIC (P. aeruginosa ATCC 27853) | MIC (K. pneumoniae ATCC 13883) | MIC [13] | MIC (E. coli ATCC 25922)
CC(C)C[C@@H]1NC(=O)[C@@H](Cc2ccccc2)NC(=O)[C@H](CCN)NC(=O)[C@@H](NC(=O)[C@@H](CCN)NC(=O)[C@@H](NC(=O)[C@H](CCN)NC(=O)Nc2ccccc2Cl)[C@@H](C)O)CCNC(=O)[C@H]([C@@H](C)O)NC(=O)[C@H](CCN)NC(=O)[C@H](CCN)NC1=O [Compound 16] ({NH(2-ClPh)-CO}-[Dab]T[dDab][Dab][Dab][dF]L[Dab][Dab]T; lactam 4-C) | >32 µg/mL | >32 µg/mL | >32 µg/mL | > 32 µg/mL | > 32 µg/mL | > 32 µg/mL | > 32 µg/mL | > 32 µg/mL | >300 µM | > 300 µM | >32 µg/mL | >32 µg/mL |  |  |  |  |  |  | 
CC(C)C[C@@H]1NC(=O)[C@@H](Cc2ccccc2)NC(=O)[C@H](CCN)NC(=O)[C@@H](NC(=O)[C@@H](CO)NC(=O)[C@@H](NC(=O)[C@H](CCN)NC(=O)Nc2ccccc2Cl)[C@@H](C)O)CCNC(=O)[C@H]([C@@H](C)O)NC(=O)[C@H](CCN)NC(=O)[C@H](CCN)NC1=O [Compound 17] ({NH(2-ClPh)-CO}-[Dab]T[dS][Dab][Dab][dF]L[Dab][Dab]T; lactam 4-C) |  | >32 µg/mL | >32 µg/mL | > 32 µg/mL | > 32 µg/mL | > 32 µg/mL | > 32 µg/mL | > 32 µg/mL |  | > 300 µM |  |  | > 32 µg/mL | > 32 µg/mL | > 32 µg/mL |  |  |  | 
CCCCCCCC(=O)N[C@@H](CCN)C(=O)N[C@H](C(=O)N[C@@H](CCN)C(=O)N[C@H]1CCNC(=O)[C@H]([C@@H](C)O)NC(=O)[C@H](CCN)NC(=O)[C@H](CCN)NC(=O)[C@H](CC(C)C)NC(=O)[C@@H](Cc2ccccc2)NC(=O)[C@H](CCNC(=O)[C@@H](N)CCC(=O)O)NC1=O)[C@@H](C)O [Compound 32] (Octanoyl-[Dab]T[Dab][Dab][Dab](Glu)[dF]L[Dab][Dab]T; lactam 4-C) |  | >32 µg/mL | >32 µg/mL | > 32 µg/mL | > 32 µg/mL | > 32 µg/mL | > 32 µg/mL | > 32 µg/mL |  | > 300 µM |  |  | > 32 µg/mL |  | > 32 µg/mL | > 32 µg/mL | > 32 µg/mL | > 32 µg/mL | > 32 µg/mL
CCCCCCCC(=O)N[C@@H](CCN)C(=O)N[C@H](C(=O)N[C@@H](CCN)C(=O)N[C@H]1CCNC(=O)[C@H]([C@@H](C)O)NC(=O)[C@H](CCN)NC(=O)[C@H](CCN)NC(=O)[C@H](CC(C)C)NC(=O)[C@@H](Cc2ccccc2)NC(=O)[C@H](CCO)NC1=O)[C@@H](C)O [Compound 33] (Octanoyl-[Dab]T[Dab][Dab][hSer][dF]L[Dab][Dab]T; lactam 4-C) |  | >32 µg/mL | >32 µg/mL | > 32 µg/mL | > 32 µg/mL | > 32 µg/mL | > 32 µg/mL | > 32 µg/mL |  | > 300 µM |  |  | > 32 µg/mL |  | > 32 µg/mL | > 32 µg/mL | > 32 µg/mL | > 32 µg/mL | 
